Reference: US20250281498A1, “FUSED AMINO PYRIMIDINE COMPOUNDS FOR TREATMENT OF SYNUCLEINOPATHIES AND TDP-43 PROTEINOPATHIES” (Ovid Therapeutics Inc., priority 2024, published 2025)

Experiments:
[1] = system: panel of 144 protein kinases; test: protein kinase panel (SelectScreen; Thermofisher); type: biochemical; details: panel incl. protein kinase C isoforms, OSR1, SPAK (STK39), WNK
Experimental: Aliquots of HEK-293 cells expressing KCC2 were exposed to 30 μM SSA, heated from 37-55° C. The remaining level of soluble native KCC2 at each temperature was measured by immunoblotting and normalized to the level seen at 37° C. which was given a value of 1. […] This panel included protein kinase C isoforms, OSR1, SPAK (STK39) and with-no-lysine kinases (WNK), all of which phosphorylate KCC2 on multiple residues to indirectly modify its activity (Kahle et al., 2013, supra; Smalley et al., 2020, supra).

[2] = system: 18-20 Div hippocampal neurons; test: gramicidin-perforated patch-clamp recording of EGABA in hippocampal neurons; type: cell-based, Sprague Dawley; details: 300 nM
Experimental: Neuronal Cultures. Hippocampal neurons were prepared from Sprague Dawley E18 embryos and plated at 450,000 per dish and maintained at 37° C. in a humidified 5% CO2 incubator for 10-25 days before experimentation (Lee et al., Nat. Neurosci. 14, 736-743 (2011)).
At this developmental stage, GABAAR receptor activation leads to hyperpolarization, a phenomenon critically dependent upon KCC2 (Kontou et al., J Biol Chem, 100364 (2021)).
Neuronal Patch clamp assays. Neuronal cell culture recordings were performed in bath saline at 34° C. For gramicidin perforated-patch experiments, pipettes contained (in mM): 140 KCl and 10 HEPES, pH 7.4 KOH. For whole-cell experiments, pipettes contained (in mM): 115 K-meth-SO4, 30 KCl, 2 Mg-ATP, 4 Na-ATP, 0.4 Na-GTP, and 10 HEPES, pH 7.4 KOH. Bath saline contained the following (in mM): 140 NaCl, 2.5 KCl, 2.5 CaCl2, 2.5 MgCl2, 10 HEPES, and 11 glucose, pH 7.4 NaOH (Kontou et al., 2021, supra). All compound solutions were applied to cells using a three-barreled 700 μm pipe positioned just above the cell (Warner Instruments). […] All voltages from whole-cell experiments were corrected offline using a calculated liquid junction potential value (13.6 mV) in Clampex (Molecular Devices). For gramicidin perforated-patch experiments, intracellular Cl^− values were back-calculated using measured EGABA values and the Nernst equation: […]

[3] = system: acute brain slices exposed to 0-Mg; test: late recurrent discharges in acute brain slices exposed to 0-Mg

Q: How did the “activity of a panel of 144 protein kinases” value [1] turn out when `C[C@@H]1CN(c2nc3c(c(Nc4ccc(C5CCCCC5)cc4)n2)COC3)CCO1` [Compound A, (R)—N-(4-cyclohexylphenyl)-2-(2-methylmorpholino)-5,7-dihydrofuro[3,4-d]pyrimidin-4-amine] was run?
A: The value was “did not modify the activity”.

Q: What about the “reduction in neuronal Cl−” value ([2]; 15 min, calculated from EGABA) of the same molecule?
A: Its value is 2.2 ± 0.6 mM.

Q: What about the EGABA after treatment ([2]; at 15 min (from −75±3.1 at 0 min), bumetanide and TTX present) of the same molecule?
A: Its EGABA after treatment is −85.1±4.2 mV.

Q: What about the “development of late recurrent discharges (LRDs)” value [3] of the same molecule?
A: Its value is “reduced”.
